Broadly, the IC50 is the concentration that gives 50% inhibition. Usually EC50 stands for the midpoint of the concentration-response curve.

Like-named read-outs stand apart in the source and are kept apart here. Where only a bound is given, the exact number is not on record here.

In patent publication US11566007B2, “Ras inhibitors” (Revolution Medicines, Inc., priority 2019, dated 2023) one finds IC50 and EC50 data, which are given here for ten compounds.

The subject of one assay is NCI-H358 (K-Ras G12C). In words: CellTiter-Glo cell viability assay, NCI-H358. Type of assay: cell-based, human. As to conditions: Homo sapiens, NCI-H358, 120 h. In short, it runs like this: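 Steps: compound dispensed into wells holding cells; incubation to day 5; ~30 min room-temperature equilibration; luminescence read; sample signal divided by mean DMSO signal, times 100; four-parameter logistic curve fit.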

The next assay deals with KRAS G12V (Homo sapiens (Human), UniProt P01116+P62937, G12V). Nature of the assay: Ras-Raf (BRAF RBD) disruption / FRET / MOA assay, KRAS G12V. Type of assay: biochemical. As to conditions: read-out: IC50* KRAS G12V FRET data. The method in brief: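 TR-FRET read-out: a drop in ratio relative to DMSO wells marks disruption of the Ras:RAF complex, reported as IC50. Compounds (3-fold series, 10 points, top 30 μM final) incubated 3 h at 25° C before Eu-anti-His 10 nM and APC-anti-GST 50 nM, 1.5 h more.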

In a further assay the target is NRAS WT (Homo sapiens (Human), UniProt P01111+P62937). In words: Ras-Raf (BRAF RBD) disruption / FRET / MOA assay, NRAS WT. Format: biochemical. The settings on record: read-out: IC50* NRAS WT FRET data. The method in brief:
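Compounds were tested as a 10-point 3-fold dilution series from 30 μM final for their ability to drive ternary complex formation between nucleotide-loaded Ras and cyclophilin A, displacing the BRAF RBD. After 3 h at 25° C., anti-His Eu-W1024 (10 nM) and anti-GST allophycocyanin (50 nM) were added for 1.5 h. A TR-FRET ratio decrease versus DMSO gave IC50.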

Assay [1] has as its system NCI-H358 cells (K-Ras G12C). In words: Potency assay: pERK in NCI-H358 cells. Format: cell-based, human. The settings on record: Homo sapiens. In short, it runs like this:
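Inhibition of cellular pERK after a 4 h treatment, detected by AlphaLISA or In-Cell Western. IC50 from a four-parameter concentration-response fit.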

Setting [2] is: NCI-H358, 5-day treatment, class symbols, read-out: Additional H358 Cell Viability assay data (K-Ras G12C, IC50).
Where [3] appears, read: NCI-H358, H358 KRAS G12C, read-out: pERK EC50.

NRAS WT, sequence (P01111 whole entry): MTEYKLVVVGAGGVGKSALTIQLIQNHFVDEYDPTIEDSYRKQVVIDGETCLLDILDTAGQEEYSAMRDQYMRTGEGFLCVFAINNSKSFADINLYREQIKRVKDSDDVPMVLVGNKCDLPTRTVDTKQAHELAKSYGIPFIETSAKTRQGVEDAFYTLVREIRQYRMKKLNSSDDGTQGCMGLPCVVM
NRAS WT, sequence (P62937 whole entry): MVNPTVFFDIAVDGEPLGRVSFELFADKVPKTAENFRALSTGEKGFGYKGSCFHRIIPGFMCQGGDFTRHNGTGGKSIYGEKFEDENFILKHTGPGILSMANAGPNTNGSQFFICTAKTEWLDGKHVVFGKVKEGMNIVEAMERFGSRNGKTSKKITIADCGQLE
KRAS G12V, sequence (P01116-2 other isoform, or with tags, fused parts or gaps G12V): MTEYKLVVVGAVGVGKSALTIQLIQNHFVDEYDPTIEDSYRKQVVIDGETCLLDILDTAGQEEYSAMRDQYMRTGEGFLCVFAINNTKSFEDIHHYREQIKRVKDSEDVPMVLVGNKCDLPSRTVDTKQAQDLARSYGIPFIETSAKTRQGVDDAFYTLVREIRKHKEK
KRAS G12V, sequence (P62937 whole entry): as the sequence (P62937 whole entry) above

On to `C=CC(=O)N1CC[C@H](C(=O)N(C)[C@H](C(=O)N[C@H]2Cc3cc(O)cc(c3)-c3ccc4c(c3)c(c(-c3cccnc3)n4[C@H](C)C#N)CC(C)(C)COC(=O)[C@@H]3CCCN(N3)C2=O)C(C)C)C1` [Example A193], for which the half-inhibitory concentration (IC50) is 0.054 µM in the assay on NCI-H358 (K-Ras G12C) (read-out: H358 Cell Viability (K-Ras G12C) IC50, uM, NCI-H358, 5-day treatment); 0.1 to 1 µM on KRAS G12V; 1 to 10 µM on NRAS WT. The EC50 in assay [1] (NCI-H358, read-out: pERK EC50) was less than 5 µM.

As to `C=CC(=O)N1CC[C@H](C(=O)N(C)[C@H](C(=O)N[C@H]2Cc3cc(O)cc(c3)-c3ccc4c(c3)c(c(-c3c(C)cccc3C)n4CC)CC(C)(C)COC(=O)[C@@H]3CCCN(N3)C2=O)C(C)C)C1` [Example A226], the figures for the IC50 in the assay with NCI-H358 (K-Ras G12C) (setting [2]), at KRAS G12V and at NRAS WT were 0.1 to 1 µM, 1 to 10 µM and greater than 10 µM, respectively. Further, in assay [1] (setting [3]), the EC50 was less than 5 µM.

As for `C=CC(=O)N1CC[C@H](C(=O)N(C)[C@H](C(=O)N[C@H]2Cc3cc(O)cc(c3)-c3ccc4c(c3)c(c(-c3cccc5c3COC5)n4CC)CC(C)(C)COC(=O)[C@@H]3CCCN(N3)C2=O)C(C)C)C1` [Example A227], the results for the half-inhibitory concentration (IC50) with NCI-H358 (K-Ras G12C) (setting [2]), at KRAS G12V and on NRAS WT were 0.1 to 1 µM, 1 to 10 µM and 1 to 10 µM, respectively. Further, the EC50 in assay [1] (setting [3]) was less than 5 µM.

For `C=CC(=O)N1CC[C@H](C(=O)N(C)[C@H](C(=O)N[C@H]2Cc3cc(O)cc(c3)-c3ccc4c(c3)c(c(-c3cnc(N(C)C)s3)n4CC)CC(C)(C)COC(=O)[C@@H]3CCCN(N3)C2=O)C(C)C)C1` [Example A302], the IC50 is 0.01 to 0.1 µM in the assay on NCI-H358 (K-Ras G12C) (setting [2]), 1 to 10 µM at KRAS G12V and greater than 10 µM at NRAS WT. In assay [1] (setting [3]), the 50% effective concentration (EC50) is less than 5 µM.

Turning to `C=CC(=O)N1CC[C@H](C(=O)N(C)[C@H](C(=O)N[C@H]2Cc3cc(O)cc(c3)-c3ccc4c(c3)c(c(-c3csc(N(C)C)n3)n4CC)CC(C)(C)COC(=O)[C@@H]3CCCN(N3)C2=O)C(C)C)C1` [Example A303], the half-maximal inhibitory concentration (IC50) in the assay with NCI-H358 (K-Ras G12C) (setting [2]) is 0.1 to 1 µM; at KRAS G12V it was greater than 10 µM; at NRAS WT, greater than 10 µM. Moreover, the EC50 in assay [1] (setting [3]) is less than 5 µM.

Consider `C=CC(=O)N1CCOC2(CCN(C(=O)N(C)[C@H](C(=O)N[C@H]3C[C@H]4CN(CCO4)c4ccc5c(c4)c(c(-c4cccnc4[C@H](C)OC)n5CC)CC(C)(C)COC(=O)[C@@H]4CCCN(N4)C3=O)C(C)C)CC2)C1` [Example A564], for which the IC50 in the assay on NCI-H358 (K-Ras G12C) (setting [2]) is 0.01 to 0.1 µM; at KRAS G12V, 0.1 to 1 µM; on NRAS WT, 0.1 to 1 µM. For the same compound, in assay [1] (setting [3]), the EC50 is less than 5 µM.

`CCn1c(-c2cccnc2[C@H](C)OC)c2c3cc(ccc31)-c1cccc(c1)CC(NC(=O)[C@H](C(C)C)N1CC[C@]3(CCN(C(=O)C#C[C@@H]4COCCN4C4COC4)C3)C1=O)C(=O)N1CCC[C@H](N1)C(=O)OCC(C)(C)C2` (stereo partly shown) [Example A565]: the 50% inhibitory concentration (IC50) was 0.01 to 0.1 µM in the assay on NCI-H358 (K-Ras G12C) (setting [2]), 1 to 10 µM at KRAS G12V and greater than 10 µM on NRAS WT. The EC50 in assay [1] (setting [3]) was less than 5 µM.

As for `C=CC(=O)N1CC[C@H](C(=O)N(C)[C@H](C(=O)N[C@H]2Cc3cccc(c3)-c3ccc4c(c3)c(c(-c3cccnc3[C@H](C)OC)n4CC)CC(C)(C)COC(=O)[C@@H]3CCCN(N3)C2=O)C(C)C(F)(F)F)C1` (stereo partly shown) [Example A641], the IC50 lay in the range of 0.01 to 0.1 µM with NCI-H358 (K-Ras G12C) (setting [2]), 1 to 10 µM at KRAS G12V and 1 to 10 µM at NRAS WT. In assay [1] (setting [3]), the half-maximal effective concentration (EC50) is less than 5 µM.

In the case of `CCn1c(-c2cccnc2[C@H](C)OC)c2c3cc(ccc31)C1CCCN(C1)C[C@H](NC(=O)[C@@H](COC1CN(C(=O)C#CC(C)(C)N(C)C)C1)C(C)C)C(=O)N1CCC[C@H](N1)C(=O)OCC(C)(C)C2` [Example A646, (2R)-2-(((1-(4-(dimethylamino)-4-methylpent-2-ynoyl)azetidin-3-yl)oxy)methyl)-N-((6^3S,4S)-1^1-ethyl-1^2-(2-((S)-1-methoxyethyl)pyridin-3-yl)-10,10-dimethyl-5,7-dioxo-6^1,6^2,6^3,6^4,6^5,6^6-hexahydro-1^1H-8-oxa-1(5,3)-indola-6(1,3)-pyridazina-2(3,1)-piperidinacycloundecaphane-4-yl)-3-methylbutanamide], the IC50 in the assay with NCI-H358 (K-Ras G12C) (setting [2]) was 0.01 to 0.1 µM; at KRAS G12V, greater than 10 µM; on NRAS WT it was greater than 10 µM. Besides, the EC50 in assay [1] (setting [3]) was less than 5 µM.

In the case of `C=CC(=O)C1CC[C@H](C(=O)N(C)[C@H](C(=O)N[C@H]2Cc3nsc(n3)-c3ccc4c(c3)c(c(-c3cccnc3[C@H](C)OC)n4CC)CC(C)(C)COC(=O)[C@@H]3CCCN(N3)C2=O)C(C)C)C1` (stereo partly shown) [Example A694], the 50% inhibitory concentration (IC50) is 0.01 to 0.1 µM in the assay on NCI-H358 (K-Ras G12C) (setting [2]), 1 to 10 µM at KRAS G12V and 1 to 10 µM at NRAS WT. In addition, in assay [1] (setting [3]), the half-maximal effective concentration (EC50) is less than 5 µM.
